pIC50: −log10 of the molar value.
Experiments:
[1] = system: CF1 male mice, carrageenan induced edema; experiment: Anti-inflammatory screen in mice (carrageenan induced foot edema); format: in vivo; settings: for reduction of edema: 16 mg/kg X 2
Excerpt: Few reports in the literature indicate interaction at these receptor sites other than by peptides or antibodies. […] Blocking these receptors is desirable because the entire inflammation cascade of events is triggered by the early release of TNFa and IL-1. […] Radioisotopes were obtained from New England Nuclear [Dupont, Boston, MA] and substrates and co- factors were obtained from Sigma Chemical Co. [St. Louis, MO]. […] Cell lines were obtained from American Type Culture Collection [Rockville, MD]. In Vivo Tests Anti-inflammatory screen in mice: Male CF male mice weighing 28-32g obtained from Jackson Lab. […] Evaluation of the induced edema was made by injecting 2% carrageenan in 0.9% saline into the plantar region of the foot. The opposite foot injected with 0.9% isotonic saline was used as a base line. […] Salmonella abortus equi [Lot # 69F4003] […] Drugs from 2 to 16 mg/kg, I.P. were administered 2 hr prior and 2 hr post-injection of the LPS and then subsequently for every 24 hr for the length ofthe animals' lives. Deaths were recorded every 12 hr and continued for 96 hr. […] In vitro TNFa andIL-1 Measurements and Cellular Regulation IC-21 mouse macrophages were maintained in RPMI-1640 + 10% FCS + P/S. After the cells had grown to confluency, E. coli LPS at 10 Ixg/ml was added to the medium. Agents were incubated at 12.5 to 100 µM final concentration for 18 hr. The medium (100 btl) was collected for TNFCt determinations. Interleukin-1 [IL-1] release was determined using P388D1 cells which were maintained in RPMI-1640 + 10% FCS + P/S. The L929 bioassay was used to quantitate the TNF and the IL-1 levels. The L929 mouse fibroblasts were grown in DMEM + 10% FCS + P/S to confluency in 96 well plates and incubated with 100 tl ofmedium from […] or P388D cells after 18 hr. The cells were stained with 0.2% crystal violet in 20% MeOH and read at 580 nm using a Molecular Devices scanner (SOFT-max program). High Affinity Binding to Receptors on L929-106 Cells Two laCi of 125I-TNFct (human recombinant, 30 mCi/tg New England Nuclear) or 125I-IL-1 (70-120[.t Ci/lxg,New England Nuclear) was added to confluency L929 cells for 90 min or 5 hr, respectively with 25, 50 and 100 tM of the test compounds 12]. The cells were washed repeatedly with isotonic saline, pH.7.2 and aliquots counted. Prostaglandin cylcooxygenase activity Mouse J774AI macrophages maintained in Dulbecco's modified Eagle's medium + 15% FCS + P/S. Cells (5 x 106) were incubated with agents (5 to 100 ].tM final concentration) and 3H-arachidonic acid (100 Ci/mol) for 60 min at 37C in a CO2 incubator. The reaction was terminated with 2N HCI, the mixture extracted 2 X with ether, and the organic layer evaporated.

[2] = system: CF1 male mice, LPS Salmonella abortus equi induced death; experiment: Protection against septic shock (LPS induced endotoxic shock); format: in vivo
[3] = target: J774-A1 macrophage elastase; experiment: Elastase activity in J774-A1 macrophages; format: biochemical, mouse
[4] = target: J774-A1 prostaglandin cyclooxygenase; experiment: Prostaglandin cyclooxygenase activity in J774-A1 macrophages; format: cell-based, mouse; settings: 60 min; read-out: IC50 Cyclo-oxygenase J774-A1
Excerpt: (§1) Few reports in the literature indicate interaction at these receptor sites other than by peptides or antibodies. […] Blocking these receptors is desirable because the entire inflammation cascade of events is triggered by the early release of TNFa and IL-1. […] Radioisotopes were obtained from New England Nuclear [Dupont, Boston, MA] and substrates and co- factors were obtained from Sigma Chemical Co. [St. Louis, MO]. […] Cell lines were obtained from American Type Culture Collection [Rockville, MD]. In Vivo Tests Anti-inflammatory screen in mice: Male CF male mice weighing 28-32g obtained from Jackson Lab. [Bar Harbor, […]] were used to screen agents at 8 or 16 mg/kg intraperitoneal [I.P.] x 2 administered 3 hr and 30 min prior to administering the irritant, according to Winter's protocol. Evaluation of the induced edema was made by injecting 2% carrageenan in 0.9% saline into the plantar region of the foot. The opposite foot injected with 0.9% isotonic saline was used as a base line. […] Salmonella abortus equi [Lot # 69F4003] […] Drugs from 2 to 16 mg/kg, I.P. were administered 2 hr prior and 2 hr post-injection of the LPS and then subsequently for every 24 hr for the length ofthe animals' lives. Deaths were recorded every 12 hr and continued for 96 hr. […] In vitro TNFa andIL-1 Measurements and Cellular Regulation IC-21 mouse macrophages were maintained in RPMI-1640 + 10% FCS + P/S. After the cells had grown to confluency, E. coli LPS at 10 Ixg/ml was added to the medium. Agents were incubated at 12.5 to 100 µM final concentration for 18 hr. The medium (100 btl) was collected for TNFCt determinations. Interleukin-1 [IL-1] release was determined using P388D1 cells which were maintained in RPMI-1640 + 10% FCS + P/S. The L929 bioassay was used to quantitate the TNF and the IL-1 levels. The L929 mouse fibroblasts were grown in DMEM + 10% FCS + P/S to confluency in 96 well plates and incubated with 100 tl ofmedium from […] or P388D cells after 18 hr. The cells were stained with 0.2% crystal violet in 20% MeOH and read at 580 nm using a Molecular Devices scanner (SOFT-max program). High Affinity Binding to Receptors on L929-106 Cells Two laCi of 125I-TNFct (human recombinant, 30 mCi/tg New England Nuclear) or 125I-IL-1 (70-120[.t Ci/lxg,New England Nuclear) was added to confluency L929 cells for 90 min or 5 hr, respectively with 25, 50 and 100 tM of the test compounds 12]. The cells were washed repeatedly with isotonic saline, pH.7.2 and aliquots counted. Prostaglandin cylcooxygenase activity Mouse J774AI macrophages maintained in Dulbecco's modified Eagle's medium + 15% FCS + P/S. Cells (5 x 106) were incubated with agents (5 to 100 ].tM final concentration) and 3H-arachidonic acid (100 Ci/mol) for 60 min at 37C in a CO2 incubator. The reaction was terminated with 2N HCI, the mixture extracted 2 X with ether, and the organic layer evaporated.

[5] = target: human leukocyte elastase (RPMI 1788); experiment: Elastase activity in human leukocytes RPMI 1788; format: biochemical
[6] = system: CF1 male mice, LPS Salmonella abortus equi induced death; experiment: Protection against septic shock (LPS induced endotoxic shock); format: in vivo; settings: for Percent Survival at 52 hr: LPS 10 mg/kg, CF1 male mice, N=6
Excerpt: as §1

[7] = target: IC-21 macrophage elastase; experiment: Elastase activity in IC-21 macrophages; format: biochemical, mouse
[8] = system: cytokine synthesis and release; settings: tissue culture; no reference given; read-out: IC50 to block cytokine synthesis and release; cited from earlier work
[9] = 8 mg/Kg X 2, I.P., CF1 male mice, N=6
[10] = 16 mg/Kg X 2, I.P., CF1 male mice, N=6

SMILES	pIC50 ([3]; 60 min)	pIC50 ([3]; 120 min)	pIC50 [4]	pIC50 ([5]; 60 min)	pIC50 ([5]; 120 min)	Percent Survival at 52 hr ([6]; 4 mg/Kg I.P.)	Percent Survival at 52 hr ([6]; 8 mg/Kg I.P.)	Percent Survival at 52 hr ([6]; 16 mg/Kg I.P.)	protection from LPS induced death ([6]; 16 mg/kg)	Percent of Control (induced edema) [1, 9]	Percent of Control (induced edema) [1, 10]	pIC50 ([7]; 60 min)	pIC50 ([7]; 120 min)	other results
CC(=O)CCCCn1c(=O)c2c(ncn2C)n(C)c1=O [Pentoxifylline, pentoxifylline]	–	–	–	–	–	–	–	–	–	–	–	–	–	Percent of Control (induced edema) ([1]; 50 mg/Kg X 2, CF1 male mice): 70 + 6% of Control; Percent Survival at 52 hr ([2]; 50 mg/Kg/day): 67 + 6%; protection from LPS induced death ([2]; 50 mg/kg): 67%
CCCCC1C(=O)N(c2ccccc2)N(c2ccccc2)C1=O [Phenylbutazone, phenylbutazone, reference compound]	–	–	–	–	–	–	–	–	–	–	–	–	–	reduction in edema ([1]; 50 mg/kg X 2): 47%
O=S(=O)(O)c1cc2c(O)c(c1)Cc1cc(S(=O)(=O)O)cc(c1O)Cc1cc(S(=O)(=O)O)cc(c1O)Cc1cc(S(=O)(=O)O)cc(c1O)Cc1cc(S(=O)(=O)O)cc(c1O)Cc1cc(S(=O)(=O)O)cc(c1O)C2 [Compound 2]	5.10	3.62	4.12	4.17	4.24	50%	50%	83%	83%	47 + 4% of Control	74+ 5% of Control	–	–	Percent Survival at 52 hr ([6]; 2 mg/kg I.P.): 83%
O=S(=O)(O)c1cc2c(O)c(c1)Cc1cc(S(=O)(=O)O)cc(c1O)Cc1cc(S(=O)(=O)O)cc(c1O)Cc1cc(S(=O)(=O)O)cc(c1O)Cc1cc(S(=O)(=O)O)cc(c1O)Cc1cc(S(=O)(=O)O)cc(c1O)Cc1cc(S(=O)(=O)O)cc(c1O)Cc1cc(S(=O)(=O)O)cc(c1O)C2 [Compound 1]	–	3.44	4.69	4.24	4.25	50%	50%	–	83%	51 + 4% of Control	56+ 5% of Control	4.27	4.35	reduction of edema [1]: greater than 40%
N=C(N)c1ccc(OCCCCCOc2ccc(C(=N)N)cc2)cc1 [pentamidine]	–	–	–	–	–	–	–	–	–	–	–	–	–	pIC50 [8]: 6.00
COc1c2cc(S(=O)(=O)[O-])cc1Cc1cc(S(=O)(=O)[O-])cc(c1OC)Cc1cc(S(=O)(=O)[O-])cc(c1OC)Cc1cc(S(=O)(=O)[O-])cc(c1OC)C2.[Na+].[Na+].[Na+].[Na+] [Compound 5]	–	–	4.19	–	–	–	33%	67%	67%	–	61 +5% of Control	–	3.95	IC50 Elastase J774-A1 ([3]; 120 min): Increased
C[C@]12CCC(=O)C=C1CC[C@@H]1[C@@H]2[C@@H](O)C[C@@]2(C)[C@H]1CC[C@]2(O)C(=O)CO [hydrocortisone]	–	–	–	–	–	–	–	–	–	–	–	–	–	pIC50 [8]: 5.00
O=S(=O)(O)c1cc2c(O)c(c1)Cc1cc(S(=O)(=O)O)cc(c1O)Cc1cc(S(=O)(=O)O)cc(c1O)Cc1cc(S(=O)(=O)O)cc(c1O)C2 [Compound 3]	4.52 to 5.00	3.55	4.56	4.14	4.60	50%	100%	50%	–	58 + 6% of Control	61 +5% of Control	4.14	4.60	pIC50 ([3]; 60 min, listed as #3): 4.54; Percent Survival at 52 hr ([6]; 2 mg/kg I.P.): 67%; protection from LPS induced death ([6]; 8 mg/kg): 100%
C[C@@H]1C[C@H]2[C@@H]3CCC4=CC(=O)C=C[C@]4(C)[C@@]3(F)[C@@H](O)C[C@]2(C)[C@@]1(O)C(=O)CO [dexamethasone, reference compound]	–	–	–	–	–	–	–	–	–	–	–	–	–	protection from LPS induced death ([6]; dexamethasone dose printed 'at mg/kg' (methods: 1 mg/kg)): 67%
COc1c2cc(S(=O)(=O)O)cc1Cc1cc(S(=O)(=O)O)cc(c1OC)Cc1cc(S(=O)(=O)O)cc(c1OC)Cc1cc(S(=O)(=O)O)cc(c1OC)Cc1cc(S(=O)(=O)O)cc(c1OC)Cc1cc(S(=O)(=O)O)cc(c1OC)Cc1cc(S(=O)(=O)O)cc(c1OC)Cc1cc(S(=O)(=O)O)cc(c1OC)C2 [Compound 4]	6.52	3.57	4.23	4.27	4.35	33%	67%	83%	83%	56 + 6% of Control	48+4% of Control	4.24	4.25	reduction of edema [1]: greater than 40%
